Experimental data as given in patent US20250011287A1, “FLUORINE-CONTAINING COMPOUND AND CONTRAST AGENT” (TDK CORPORATION, priority 2021, published 2025).

Key:
[1] = 19F spin-lattice relaxation time (T1) measurement by inversion recovery method, 500 MHz NMR; type: physicochemical; conditions: 5 mM/CDCl3, 36° C.
Description: (§1) For each of the compounds of Examples 1 to 10, Comparative Example 1, and Comparative Example 2 obtained as above, a ^19F spin-lattice relaxation time (T1) and a ^19F spin-spin relaxation time (T2) were measured by the following method.
The compound was dissolved in a deuterated chloroform solution at a concentration of 5 mM, and the longitudinal relaxation time (T1) of the ^19F nucleus was measured using a 500 MHz NMR device by an inversion recovery method under the conditions described below.
• NMR device: JNM-ECA500 (manufactured by JOEL) • Measurement temperature: 36° C. • Pulse sequence: double_pulse • relaxation_delay: 10 [s] • tau_interval: 4, 3, 2, 1, 0.8, 0.6, 0.4, 0.2, 0.1 [s], 80, 60, 40, 20, 10, 8, 6, 4, 2 [ms] • Accumulated number of times: 128 times

[2] = 19F spin-spin relaxation time (T2) measurement by CPMG method, 500 MHz NMR; type: physicochemical; conditions: 5 mM/CDCl3, 36° C.
Description: as §1
The compound was dissolved in a deuterated chloroform solution at a concentration of 5 mM, and the transverse relaxation time (T2) of the ^19F nucleus was measured using a 500 MHz NMR device by a Carr-Purcell-Meiboom-Gill (CPMG) method under the conditions described below.
• NMR device: JNM-ECA500 (manufactured by JOEL) • Measurement temperature: 36° C. • relaxation_delay: 10 [s] • tau_step: 1 [ms] • relaxation_delay: 1, 2, 3, 4, 5, 6, 8, 9, 10, 25, 50, 75 [ms], 0.10, 0.25, 0.50, 0.75, 1.00, 1.25, 1.50, 1.75, 2.00 [s] • Accumulated number of times: 128 times

Row | Compound | T1 (19F spin-lattice relaxation time) [1] | T2 (19F spin-spin relaxation time) [2]
1 | CC1(C)CC(OCCCCCCOCC(COC(C(F)(F)F)(C(F)(F)F)C(F)(F)F)(COC(C(F)(F)F)(C(F)(F)F)C(F)(F)F)COC(C(F)(F)F)(C(F)(F)F)C(F)(F)F)CC(C)(C)N1O [Compound 18] | 0.428 s | 0.274 s
2 | 1,3-Bis(2,2,2-trifluoro-1,1-bis(trifluoromethyl(ethoxy)-2,2-bis((2,2,2-trifluoro-1,1-bis(trifluoromethyl)ethoxy)methyl)propane [Compound A1, reference compound] | 1.380 s | 1.270 s
3 | CCC1(CC)CC(OCC(COC(C(F)(F)F)(C(F)(F)F)C(F)(F)F)(COC(C(F)(F)F)(C(F)(F)F)C(F)(F)F)COC(C(F)(F)F)(C(F)(F)F)C(F)(F)F)CC(CC)(CC)N1O [Compound 12, 4-(3-((1,1,1,3,3,3-hexafluoro-2-(trifluoromethyl)propan-2-yl)oxy)-2,2-bis(((1,1,1,3,3,3-hexafluoro-2-(trifluoromethyl)propan-2-yl)oxy)methyl)propoxy)-2,2,6,6-tetraethylpiperidin-1-oxyl] | 0.070 s | 0.049 s
4 | CC1(C)CC(OCCCOCC(COC(C(F)(F)F)(C(F)(F)F)C(F)(F)F)(COC(C(F)(F)F)(C(F)(F)F)C(F)(F)F)COC(C(F)(F)F)(C(F)(F)F)C(F)(F)F)CC(C)(C)N1O [Compound 16] | 0.183 s | 0.120 s
5 | 4-(3-((1,1,1,3,3,3-hexafluoro-2-(trifluoromethyl)propan-2-yl)oxy)-2,2-bis(((1,1,1,3,3,3-hexafluoro-2-(trifluoromethyl)propan-2-yl)oxy)methyl)propoxy)-2,2,6,6-tetramethylpiperidin-1-oxyl [Compound 11] | 0.077 s | 0.057 s
6 | 4-(3-((1,1,1,3,3,3-hexafluoro-2-(trifluoromethyl)propan-2-yl)oxy)-2-(((1,1,1,3,3,3-hexafluoro-2-(trifluoromethyl)propan-2-yl)oxy)methyl)-2-methylpropoxy)-2,2,6,6-tetramethylpiperidin-1-oxyl [Compound 13] | 0.071 s | 0.050 s
7 | CC1(C)CC(OCCCCCCCCCOCC(COC(C(F)(F)F)(C(F)(F)F)C(F)(F)F)(COC(C(F)(F)F)(C(F)(F)F)C(F)(F)F)COC(C(F)(F)F)(C(F)(F)F)C(F)(F)F)CC(C)(C)N1O [Compound 19] | 0.520 s | 0.332 s
8 | CC1(C)CC(OCCCCCCCCCCCCOCC(COC(C(F)(F)F)(C(F)(F)F)C(F)(F)F)(COC(C(F)(F)F)(C(F)(F)F)C(F)(F)F)COC(C(F)(F)F)(C(F)(F)F)C(F)(F)F)CC(C)(C)N1O [Compound 20] | 0.612 s | 0.390 s
9 | CCC1(CC)CC(OCCCOCC(COC(C(F)(F)F)(C(F)(F)F)C(F)(F)F)(COC(C(F)(F)F)(C(F)(F)F)C(F)(F)F)COC(C(F)(F)F)(C(F)(F)F)C(F)(F)F)CC(CC)(CC)N1O [Compound 17] | 0.172 s | 0.108 s
10 | CC1(C)CC(OCCOCC(COC(C(F)(F)F)(C(F)(F)F)C(F)(F)F)(COC(C(F)(F)F)(C(F)(F)F)C(F)(F)F)COC(C(F)(F)F)(C(F)(F)F)C(F)(F)F)CC(C)(C)N1O [Compound 14] | 0.153 s | 0.101 s
11 | CCC1(CC)CC(OCCOCC(COC(C(F)(F)F)(C(F)(F)F)C(F)(F)F)(COC(C(F)(F)F)(C(F)(F)F)C(F)(F)F)COC(C(F)(F)F)(C(F)(F)F)C(F)(F)F)CC(CC)(CC)N1O [Compound 15] | 0.145 s | 0.092 s
